Measurements taken from ChEMBL document CHEMBL1201862, “PubChem BioAssay data set” (2004).
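Growth conditions: 96-well plates. Treatment: test compound, 48 hours, 5 concentrations. Analysis: linear interpolation between bracketing concentrations; unreached endpoints set to highest concentration. Here, GI50 denotes the concentration required for 50% inhibition of growth.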 Calls of active or inactive are those of the source. Cut-off read from the data, not from the text of the source: active = GI50 up to about 1.1 µM and inactive = higher.

Columns and labels:
Test in all cases: DTP human tumour cell line panel, 48 h
[1] = tested on: PC-3
[2] = tested on: Hs-578T
[3] = tested on: HCT-15
[4] = tested on: TK-10
[5] = tested on: U-251
[6] = tested on: NCI-H23
[7] = tested on: SF-268
[8] = tested on: SK-MEL-28
[9] = tested on: HT-29
[10] = tested on: EKVX
[11] = tested on: K562
[12] = tested on: RXF 393
[13] = tested on: DU-145
[14] = tested on: MCF7
[15] = tested on: SF-539
[16] = tested on: SW-620
[17] = tested on: OVCAR-3
[18] = tested on: SK-MEL-5
[19] = tested on: CCRF-CEM
[20] = tested on: MOLT-4
[21] = tested on: T47D
[22] = tested on: A549
[23] = tested on: MDA-N
[24] = tested on: UACC-257
[25] = tested on: LOX IMVI
[26] = tested on: UO-31
[27] = tested on: ACHN
[28] = tested on: OVCAR-4
[29] = tested on: HCT-116
[30] = tested on: SNB-75
[31] = tested on: 786-0
[32] = tested on: HL-60
[33] = tested on: NCI/ADR-RES
[34] = tested on: SF-295
[35] = tested on: UACC-62
[36] = tested on: NCI-H460
[37] = tested on: HOP-62
[38] = tested on: BT-549
[39] = tested on: A498
[40] = tested on: SN12C
[41] = tested on: SK-OV-3
[42] = tested on: MDA-MB-231
[43] = tested on: SK-MEL-2
[44] = tested on: KM12
[45] = tested on: OVCAR-8
[46] = tested on: NCI-H226
[47] = tested on: NCI-H522
[48] = tested on: COLO 205
[49] = tested on: HCC 2998
[50] = tested on: M14
[51] = tested on: HOP-92
[52] = tested on: MDA-MB-435
[53] = tested on: IGROV-1
[54] = tested on: CAKI-1
[55] = tested on: Malme-3M
[56] = tested on: SNB-19
[57] = tested on: OVCAR-5

Measured: GI50

Cc1ccc(C2=Nc3c(c(C)nn3-c3ccccc3)N=C(C(=O)O)C2)cc1
inactive: [1] > 10 µM | [2] > 10 µM | [4] > 10 µM | [5] > 10 µM | [6] > 10 µM | [7] > 10 µM | [8] > 10 µM | [9] > 10 µM | [10] > 10 µM | [11] > 10 µM | [12] > 10 µM | [13] > 10 µM | [14] > 10 µM | [15] > 10 µM | [16] > 10 µM | [17] > 10 µM | [18] > 10 µM | [19] > 10 µM | [20] > 10 µM | [21] > 10 µM | [22] > 10 µM | [23] > 10 µM | [24] > 10 µM | [25] > 10 µM | [26] > 10 µM | [27] > 10 µM | [28] > 10 µM | [29] > 10 µM | [30] > 10 µM | [31] > 10 µM | [32] > 10 µM | [33] > 10 µM | [34] > 10 µM | [35] > 10 µM | [36] > 10 µM | [37] > 10 µM | [38] > 10 µM | [39] > 10 µM | [40] > 10 µM | [41] > 10 µM | [42] > 10 µM | [43] > 10 µM | [44] > 10 µM | [45] > 10 µM | [46] > 10 µM | [47] > 10 µM | [48] > 10 µM | [49] > 10 µM | [50] > 10 µM | [51] > 10 µM | [52] > 10 µM | [53] > 10 µM | [54] > 10 µM | [55] > 10 µM | [56] > 10 µM | [57] > 10 µM
> 10 µM: [3]
